Test system: Panel NCI-60 (60 carcinoma cell lines)
Experiment: In vitro mean of concentrations that inhibits cell growth across 60 cell lines of the NCI panel after incubation for 48 hr at 37 degree C was measured using SRB assay
Type: functional
Details: Homo sapiens

| SMILES | GI50 [nM] |
| --- | --- |
| COc1cc2c(cc1OC)C(=O)N1C=CC[C@H]1C=N2 | 1280 |
| COc1cc2c(cc1OC)C(=O)N1CCC[C@H]1C=N2 | 2390 |
| COc1cc2c(cc1OC)C(=O)N1C=C(c3ccco3)C[C@H]1C=N2 | < 10 |
| COc1cc2c(cc1OC)C(=O)N1C=C(C#Cc3ccccc3)C[C@H]1C=N2 | < 10 |
| C=CC1=CN2C(=O)c3cc(OC)c(OC)cc3N=C[C@@H]2C1 | 120 |
| COc1cc2c(cc1OC)C(=O)N1C=C(c3cccs3)C[C@H]1C=N2 | 20 |
| COc1cc2c(cc1OC)C(=O)N1C=C(c3ccccc3)C[C@H]1C=N2 | < 10 |

Reference: ChEMBL document CHEMBL1137887, “Application of the Stille coupling reaction to the synthesis of C2-substituted endo-exo unsaturated pyrrolo[2,1-c][1,4]benzodiazepines (PBDs)” (2004)
